Like-named read-outs stand apart in the source and are kept apart here.
Columns and labels:
Assay in all cases: Kinase selectivity profile assay
Format in all cases: biochemical
MSK1/RPS6KA5 = target: T1, MSK1/RPS6KA5 (Homo sapiens, UniProt O75582); conditions: 500 nM; relative to DMSO; read-out: Residual enzymatic activity
T1 construct: purchased Reaction Biology Corporation
Procedure: (§1) The activity of MT-SYK-03 against cSrc kinase and selectivity profile towards other 341 kinases was determined at Reaction Biology Corporation (Malvern, PA, USA) using the standard kinase assay protocol. […]; unbound phosphate was removed by extensive washing of filters in phosphoric acid. Kinase activity data was expressed as the percent remaining kinase activity in test samples compared to vehicle (dimethyl sulfoxide) reactions based on the radioactivity of reaction products (see Table S2). Experiment was replicated twice.

TXK = target: T2, TXK (Homo sapiens, UniProt P42681); conditions: for remaining activity at 0.5 µM: 500 nM, relative to DMSO, read-out: Residual enzymatic activity
T2 construct: purchased Reaction Biology Corporation (Malvern, PA, USA)
T2 sequence (P42681 1-527): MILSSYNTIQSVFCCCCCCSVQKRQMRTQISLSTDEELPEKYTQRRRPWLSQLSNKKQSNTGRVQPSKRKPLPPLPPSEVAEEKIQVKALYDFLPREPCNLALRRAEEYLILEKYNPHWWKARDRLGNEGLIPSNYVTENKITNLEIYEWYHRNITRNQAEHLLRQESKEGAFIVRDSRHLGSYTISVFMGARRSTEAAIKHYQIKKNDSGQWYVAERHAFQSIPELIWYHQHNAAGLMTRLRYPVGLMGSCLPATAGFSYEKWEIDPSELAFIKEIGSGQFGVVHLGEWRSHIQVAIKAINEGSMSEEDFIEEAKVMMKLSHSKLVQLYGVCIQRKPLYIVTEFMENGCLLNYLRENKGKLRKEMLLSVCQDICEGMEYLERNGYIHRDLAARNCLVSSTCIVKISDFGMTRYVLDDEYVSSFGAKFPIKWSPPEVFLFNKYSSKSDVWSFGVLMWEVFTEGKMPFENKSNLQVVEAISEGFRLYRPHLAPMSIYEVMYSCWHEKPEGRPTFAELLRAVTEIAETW
Procedure: as §1

ABL1 = target: T3, ABL1 (Homo sapiens, UniProt P00519); conditions: 500 nM, relative to DMSO; for remaining activity at 0.5 µM: read-out: Residual enzymatic activity
T3 construct: purchased Reaction Biology Corporation
T3 sequence (P00519 whole entry): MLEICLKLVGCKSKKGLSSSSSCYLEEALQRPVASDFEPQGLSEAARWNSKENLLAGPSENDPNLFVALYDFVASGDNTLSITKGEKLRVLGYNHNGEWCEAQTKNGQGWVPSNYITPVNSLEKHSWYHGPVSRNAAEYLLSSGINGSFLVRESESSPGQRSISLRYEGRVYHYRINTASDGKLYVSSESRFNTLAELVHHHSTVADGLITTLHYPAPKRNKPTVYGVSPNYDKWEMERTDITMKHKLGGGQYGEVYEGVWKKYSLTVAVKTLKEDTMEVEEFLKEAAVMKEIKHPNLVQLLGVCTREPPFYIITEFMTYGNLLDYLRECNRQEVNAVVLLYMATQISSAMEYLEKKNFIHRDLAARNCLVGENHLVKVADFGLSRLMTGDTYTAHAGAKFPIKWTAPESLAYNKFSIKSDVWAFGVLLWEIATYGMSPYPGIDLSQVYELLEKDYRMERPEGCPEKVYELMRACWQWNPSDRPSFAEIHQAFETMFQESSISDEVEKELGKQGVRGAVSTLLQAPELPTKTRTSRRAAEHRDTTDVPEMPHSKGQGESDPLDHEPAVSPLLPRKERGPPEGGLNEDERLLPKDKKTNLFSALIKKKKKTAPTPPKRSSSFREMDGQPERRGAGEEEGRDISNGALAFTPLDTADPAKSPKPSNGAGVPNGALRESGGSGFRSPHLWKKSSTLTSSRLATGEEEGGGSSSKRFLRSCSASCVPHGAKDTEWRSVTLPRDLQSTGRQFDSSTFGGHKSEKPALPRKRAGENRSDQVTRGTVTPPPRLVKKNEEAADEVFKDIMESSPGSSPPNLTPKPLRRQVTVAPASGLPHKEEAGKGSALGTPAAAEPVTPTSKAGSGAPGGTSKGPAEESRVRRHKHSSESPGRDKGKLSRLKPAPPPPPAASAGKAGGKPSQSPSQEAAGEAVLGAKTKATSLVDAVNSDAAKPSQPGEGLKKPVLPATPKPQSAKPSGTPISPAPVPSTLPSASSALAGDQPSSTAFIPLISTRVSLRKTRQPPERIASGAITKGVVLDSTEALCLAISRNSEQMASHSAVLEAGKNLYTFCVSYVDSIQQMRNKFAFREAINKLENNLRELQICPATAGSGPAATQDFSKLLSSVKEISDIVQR
Procedure: as §1

PLK2 = target: T4, PLK2 (Homo sapiens, UniProt Q9NYY3); conditions: 500 nM; relative to DMSO; read-out: Residual enzymatic activity
T4 construct: purchased Reaction Biology Corporation
Procedure: as §1

DYRK1/DYRK1A = target: T5, DYRK1/DYRK1A (Homo sapiens, UniProt Q13627); conditions: 500 nM; relative to DMSO; read-out: Residual enzymatic activity
T5 construct: purchased Reaction Biology Corporation
Procedure: as §1

GRK3 = target: T6, GRK3 (Homo sapiens, UniProt P35626); conditions: 500 nM; relative to DMSO; read-out: Residual enzymatic activity
T6 construct: purchased Reaction Biology Corporation
Procedure: as §1

PKA = target: T7, PKA (Homo sapiens, UniProt P17612); conditions: 500 nM, relative to DMSO; for remaining activity at 0.5 µM: read-out: Residual enzymatic activity
T7 construct: purchased Reaction Biology Corporation
Procedure: as §1

CK1epsilon = target: T8, CK1epsilon (Homo sapiens, UniProt P49674); conditions: 500 nM; relative to DMSO; read-out: Residual enzymatic activity
T8 construct: purchased Reaction Biology Corporation
Procedure: as §1

Aurora C = target: T9, Aurora C (Homo sapiens, UniProt Q9UQB9); conditions: 500 nM; relative to DMSO; read-out: Residual enzymatic activity
T9 construct: purchased Reaction Biology Corporation
Procedure: as §1

MRCKb/CDC42BPB = target: T10, MRCKb/CDC42BPB (Homo sapiens, UniProt Q9Y5S2); conditions: read-out: Residual enzymatic activity
T10 construct: purchased Reaction Biology Corporation
Procedure: as §1

MYLK3 = target: T11, MYLK3 (Homo sapiens, UniProt Q32MK0); conditions: 500 nM; relative to DMSO; read-out: Residual enzymatic activity
T11 construct: purchased Reaction Biology Corporation
Procedure: as §1

PKG1b = target: T12, PKG1b (Homo sapiens, UniProt Q13976); conditions: 500 nM; relative to DMSO; read-out: Residual enzymatic activity
T12 construct: purchased Reaction Biology Corporation
Procedure: as §1

SGK3/SGKL = target: T13, SGK3/SGKL (Homo sapiens, UniProt Q96BR1); conditions: 500 nM; relative to DMSO; read-out: Residual enzymatic activity
T13 construct: purchased Reaction Biology Corporation
Procedure: as §1

PDGFRa = target: T14, PDGFRa (Homo sapiens, UniProt P16234); conditions: for remaining activity at 0.5 µM: 500 nM, relative to DMSO, read-out: Residual enzymatic activity
T14 construct: purchased Reaction Biology Corporation (Malvern, PA, USA)
T14 sequence (P16234 24-1089): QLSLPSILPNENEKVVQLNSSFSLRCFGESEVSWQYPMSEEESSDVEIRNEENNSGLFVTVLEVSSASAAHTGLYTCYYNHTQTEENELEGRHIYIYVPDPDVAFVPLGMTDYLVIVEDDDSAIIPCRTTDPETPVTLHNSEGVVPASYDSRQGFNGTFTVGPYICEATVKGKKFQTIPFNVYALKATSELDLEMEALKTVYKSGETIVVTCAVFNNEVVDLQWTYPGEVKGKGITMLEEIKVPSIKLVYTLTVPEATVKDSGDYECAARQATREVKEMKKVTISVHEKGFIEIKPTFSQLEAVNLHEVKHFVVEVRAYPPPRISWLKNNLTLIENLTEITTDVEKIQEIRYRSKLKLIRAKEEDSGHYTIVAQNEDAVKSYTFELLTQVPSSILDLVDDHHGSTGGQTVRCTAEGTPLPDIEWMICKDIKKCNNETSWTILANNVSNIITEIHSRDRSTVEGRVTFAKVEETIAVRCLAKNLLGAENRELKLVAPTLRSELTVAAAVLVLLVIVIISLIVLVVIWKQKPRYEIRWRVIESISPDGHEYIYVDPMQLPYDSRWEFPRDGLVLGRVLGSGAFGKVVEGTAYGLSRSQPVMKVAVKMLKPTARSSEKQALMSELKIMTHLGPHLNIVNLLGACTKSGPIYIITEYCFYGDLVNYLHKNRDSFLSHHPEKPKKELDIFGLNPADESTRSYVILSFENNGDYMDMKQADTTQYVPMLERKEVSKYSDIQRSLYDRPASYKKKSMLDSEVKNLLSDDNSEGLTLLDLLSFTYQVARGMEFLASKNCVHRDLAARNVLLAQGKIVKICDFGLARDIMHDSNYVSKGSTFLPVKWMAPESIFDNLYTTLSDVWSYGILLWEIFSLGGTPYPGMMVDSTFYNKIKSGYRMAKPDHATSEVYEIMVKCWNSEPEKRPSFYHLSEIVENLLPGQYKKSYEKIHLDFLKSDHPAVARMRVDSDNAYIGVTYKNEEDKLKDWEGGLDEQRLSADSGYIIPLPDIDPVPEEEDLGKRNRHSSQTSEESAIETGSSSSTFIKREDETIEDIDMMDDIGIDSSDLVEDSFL
Procedure: as §1

Aurora B = target: T15, Aurora B (Homo sapiens, UniProt Q96GD4); conditions: 500 nM; relative to DMSO; read-out: Residual enzymatic activity
T15 construct: purchased Reaction Biology Corporation
Procedure: as §1

PRKX = target: T16, PRKX (Homo sapiens, UniProt P51817); conditions: 500 nM; relative to DMSO; read-out: Residual enzymatic activity
T16 construct: purchased Reaction Biology Corporation
Procedure: as §1

TGFBR2 = target: T17, TGFBR2 (Homo sapiens, UniProt P37173); conditions: 500 nM; relative to DMSO; read-out: Residual enzymatic activity
T17 construct: purchased Reaction Biology Corporation
Procedure: as §1

EPHA3 = target: T18, EPHA3 (Homo sapiens, UniProt P29320); conditions: 500 nM, relative to DMSO
T18 construct: purchased Reaction Biology Corporation
Procedure: as §1

DDR2 = target: T19, DDR2 (Homo sapiens, UniProt Q16832); conditions: 500 nM; relative to DMSO; read-out: Residual enzymatic activity
T19 construct: purchased Reaction Biology Corporation
Procedure: as §1

CDK2/cyclin E = target: T20, CDK2/cyclin E (Homo sapiens, UniProt P24941); conditions: 500 nM; relative to DMSO; read-out: Residual enzymatic activity
T20 construct: purchased Reaction Biology Corporation
Procedure: as §1

ALK = target: T21, ALK (Homo sapiens, UniProt Q9UM73); conditions: 500 nM; relative to DMSO; read-out: Residual enzymatic activity
T21 construct: purchased Reaction Biology Corporation
Procedure: as §1

RAF1 = target: T22, RAF1 (Homo sapiens, UniProt P04049); conditions: 500 nM; relative to DMSO; read-out: Residual enzymatic activity
T22 construct: purchased Reaction Biology Corporation
Procedure: as §1

MSK2/RPS6KA4 = target: T23, MSK2/RPS6KA4 (Homo sapiens, UniProt O75676); conditions: 500 nM; relative to DMSO; read-out: Residual enzymatic activity
T23 construct: purchased Reaction Biology Corporation
Procedure: as §1

CK1a1 = target: T24, CK1a1 (Homo sapiens, UniProt P48729); conditions: 500 nM; relative to DMSO; read-out: Residual enzymatic activity
T24 construct: purchased Reaction Biology Corporation
Procedure: as §1

CDK9/cyclin T1 = target: T25, CDK9/cyclin T1 (Homo sapiens, UniProt P50750); conditions: 500 nM; relative to DMSO; read-out: Residual enzymatic activity
T25 construct: purchased Reaction Biology Corporation
Procedure: as §1

SRMS = target: T26, SRMS (Homo sapiens, UniProt Q9H3Y6); conditions: 500 nM; relative to DMSO; read-out: Residual enzymatic activity
T26 construct: purchased Reaction Biology Corporation
Procedure: as §1

LYN = target: T27, LYN (Homo sapiens, UniProt P07948); conditions: for remaining activity at 0.5 µM: 500 nM, relative to DMSO, read-out: Residual enzymatic activity
T27 construct: purchased Reaction Biology Corporation (assay service)
T27 sequence (P07948 whole entry): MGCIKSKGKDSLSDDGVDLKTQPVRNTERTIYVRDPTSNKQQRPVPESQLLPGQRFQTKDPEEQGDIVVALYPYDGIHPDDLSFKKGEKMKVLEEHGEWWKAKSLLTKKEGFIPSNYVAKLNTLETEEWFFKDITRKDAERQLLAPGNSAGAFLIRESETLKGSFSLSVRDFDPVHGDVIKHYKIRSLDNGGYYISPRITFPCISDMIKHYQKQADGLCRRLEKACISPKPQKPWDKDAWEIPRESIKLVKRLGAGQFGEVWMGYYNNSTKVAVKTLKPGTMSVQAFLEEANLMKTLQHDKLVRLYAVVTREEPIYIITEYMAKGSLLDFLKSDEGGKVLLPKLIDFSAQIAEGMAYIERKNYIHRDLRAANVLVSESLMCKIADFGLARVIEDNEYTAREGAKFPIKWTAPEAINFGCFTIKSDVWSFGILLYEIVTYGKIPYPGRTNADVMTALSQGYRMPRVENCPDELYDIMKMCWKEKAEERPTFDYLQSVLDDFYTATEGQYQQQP
Procedure: as §1

MST3/STK24 = target: T28, MST3/STK24 (Homo sapiens, UniProt Q9Y6E0); conditions: 500 nM; relative to DMSO; read-out: Residual enzymatic activity
T28 construct: purchased Reaction Biology Corporation
T28 sequence (Q9Y6E0 whole entry): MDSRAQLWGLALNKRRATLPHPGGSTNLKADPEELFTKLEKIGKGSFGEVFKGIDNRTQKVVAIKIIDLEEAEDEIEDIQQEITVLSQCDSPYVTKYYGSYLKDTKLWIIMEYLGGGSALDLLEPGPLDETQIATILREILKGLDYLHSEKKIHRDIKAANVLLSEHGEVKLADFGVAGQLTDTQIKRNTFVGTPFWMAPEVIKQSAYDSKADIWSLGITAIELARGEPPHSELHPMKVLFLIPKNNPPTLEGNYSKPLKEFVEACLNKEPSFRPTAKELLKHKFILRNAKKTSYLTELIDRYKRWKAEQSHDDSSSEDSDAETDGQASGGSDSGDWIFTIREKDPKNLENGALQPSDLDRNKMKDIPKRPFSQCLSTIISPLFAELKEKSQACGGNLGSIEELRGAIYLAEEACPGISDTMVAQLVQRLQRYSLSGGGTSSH
Procedure: as §1

DYRK3 = target: T29, DYRK3 (Homo sapiens, UniProt O43781); conditions: 500 nM; relative to DMSO; read-out: Residual enzymatic activity
T29 construct: purchased Reaction Biology Corporation
Procedure: as §1

p70S6Kb/RPS6KB2 = target: T30, p70S6Kb/RPS6KB2 (Homo sapiens, UniProt Q9UBS0); conditions: 500 nM; relative to DMSO; read-out: Residual enzymatic activity
T30 construct: purchased Reaction Biology Corporation
Procedure: as §1

IGF1R = target: T31, IGF1R (Homo sapiens, UniProt P08069); conditions: 500 nM; relative to DMSO; read-out: Residual enzymatic activity
T31 construct: purchased Reaction Biology Corporation
T31 sequence (P08069 31-1367): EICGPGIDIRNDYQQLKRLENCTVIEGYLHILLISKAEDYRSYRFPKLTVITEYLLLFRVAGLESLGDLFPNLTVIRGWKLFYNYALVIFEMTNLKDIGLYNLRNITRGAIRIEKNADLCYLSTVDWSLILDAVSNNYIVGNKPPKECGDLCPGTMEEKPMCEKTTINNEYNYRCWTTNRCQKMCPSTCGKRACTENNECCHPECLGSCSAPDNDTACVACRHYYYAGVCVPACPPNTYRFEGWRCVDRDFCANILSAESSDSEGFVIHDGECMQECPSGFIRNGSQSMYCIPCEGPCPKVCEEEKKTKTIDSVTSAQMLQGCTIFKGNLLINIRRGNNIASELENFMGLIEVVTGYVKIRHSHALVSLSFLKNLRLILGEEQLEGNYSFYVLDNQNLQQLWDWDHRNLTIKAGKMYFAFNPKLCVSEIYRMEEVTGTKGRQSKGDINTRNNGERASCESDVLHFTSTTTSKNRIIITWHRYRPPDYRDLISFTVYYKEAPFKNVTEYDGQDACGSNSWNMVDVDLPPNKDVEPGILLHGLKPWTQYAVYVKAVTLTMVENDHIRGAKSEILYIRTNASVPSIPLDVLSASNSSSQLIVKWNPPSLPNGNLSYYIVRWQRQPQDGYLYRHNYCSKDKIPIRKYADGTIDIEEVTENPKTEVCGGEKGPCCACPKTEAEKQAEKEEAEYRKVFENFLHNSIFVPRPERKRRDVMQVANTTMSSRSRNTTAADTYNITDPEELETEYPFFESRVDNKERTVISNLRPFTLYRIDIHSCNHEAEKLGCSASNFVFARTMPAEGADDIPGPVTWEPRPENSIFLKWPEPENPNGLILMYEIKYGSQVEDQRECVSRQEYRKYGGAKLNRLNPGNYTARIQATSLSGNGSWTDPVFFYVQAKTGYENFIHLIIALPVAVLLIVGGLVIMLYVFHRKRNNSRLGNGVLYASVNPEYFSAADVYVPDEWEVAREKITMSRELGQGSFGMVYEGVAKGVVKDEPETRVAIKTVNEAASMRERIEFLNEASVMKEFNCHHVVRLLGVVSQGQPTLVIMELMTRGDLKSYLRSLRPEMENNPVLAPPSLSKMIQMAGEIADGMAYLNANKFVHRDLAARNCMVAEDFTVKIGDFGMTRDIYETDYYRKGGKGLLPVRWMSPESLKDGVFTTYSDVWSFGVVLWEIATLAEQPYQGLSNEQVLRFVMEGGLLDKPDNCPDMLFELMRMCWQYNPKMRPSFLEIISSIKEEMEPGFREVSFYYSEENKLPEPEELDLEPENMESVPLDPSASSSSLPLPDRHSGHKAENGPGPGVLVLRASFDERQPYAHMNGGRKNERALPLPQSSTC
Procedure: as §1

MAPKAPK2 = target: T32, MAPKAPK2 (Homo sapiens, UniProt P49137); conditions: 500 nM, relative to DMSO; for remaining activity at 0.5 µM: read-out: Residual enzymatic activity
T32 construct: purchased Reaction Biology Corporation
T32 sequence (P49137 whole entry): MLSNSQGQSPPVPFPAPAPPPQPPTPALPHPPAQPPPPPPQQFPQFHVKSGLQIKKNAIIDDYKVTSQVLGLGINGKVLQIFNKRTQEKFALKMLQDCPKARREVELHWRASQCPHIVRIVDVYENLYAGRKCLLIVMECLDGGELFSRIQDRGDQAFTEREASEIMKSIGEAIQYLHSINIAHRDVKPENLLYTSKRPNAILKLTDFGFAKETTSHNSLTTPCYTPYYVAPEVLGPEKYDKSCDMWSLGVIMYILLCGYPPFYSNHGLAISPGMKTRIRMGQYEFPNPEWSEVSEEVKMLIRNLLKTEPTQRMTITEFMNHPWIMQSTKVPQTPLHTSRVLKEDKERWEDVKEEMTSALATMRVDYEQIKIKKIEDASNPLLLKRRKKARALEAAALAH
Procedure: as §1

[1] = 10-dose mode, threefold serial dilution from 10 μM

SMILES | remaining activity at 0.5 µM (MSK1/RPS6KA5) | remaining activity at 0.5 µM (TXK) | remaining activity at 0.5 µM (ABL1) | remaining activity at 0.5 µM (PLK2) | remaining activity at 0.5 µM (DYRK1/DYRK1A) | remaining activity at 0.5 µM (GRK3) | remaining activity at 0.5 µM (PKA) | remaining activity at 0.5 µM (CK1epsilon) | remaining activity at 0.5 µM (Aurora C) | remaining activity at 0.5 µM (MYLK3) | remaining activity at 0.5 µM (PKG1b) | remaining activity at 0.5 µM (SGK3/SGKL) | remaining activity at 0.5 µM (PDGFRa) | remaining activity at 0.5 µM (Aurora B) | remaining activity at 0.5 µM (PRKX) | remaining activity at 0.5 µM (TGFBR2) | remaining activity at 0.5 µM (DDR2) | remaining activity at 0.5 µM (CDK2/cyclin E) | remaining activity at 0.5 µM (ALK) | remaining activity at 0.5 µM (RAF1) | further results
COc1cc(Nc2ncc(F)c(Nc3ccc4c(n3)NC(=O)C(C)(C)O4)n2)cc(OC)c1OC [R406, reference compound] | 97.3% | 16.3% | 68.6% | 19.4% | 53% | 102% | 50.8% | 104% | 42.1% | 96.4% | 98.6% | 100% | 10.5% | 40.2% | 104% | 97.1% | 31.5% | 60% | 41.2% | 73.3% | remaining activity at 0.5 µM (MRCKb/CDC42BPB): 105%; remaining activity at 0.5 µM (EPHA3; read-out: Residual enzymatic activity): 85.6%; remaining activity at 0.5 µM (MSK2/RPS6KA4): 97.7%; remaining activity at 0.5 µM (CK1a1): 95.5%; remaining activity at 0.5 µM (CDK9/cyclin T1): 99.5%; remaining activity at 0.5 µM (SRMS): 101%; remaining activity at 0.5 µM (LYN): 5.7%; remaining activity at 0.5 µM (MST3/STK24): 95.6%; remaining activity at 0.5 µM (DYRK3): 90.6%; remaining activity at 0.5 µM (p70S6Kb/RPS6KB2): 74.6%; remaining activity at 0.5 µM (IGF1R): 60.3%; remaining activity at 0.5 µM (MAPKAPK2): 106%
COc1cc(Nc2ncnc(Nc3cc4c(cn3)NC(=O)C(C)(C)O4)n2)cc(OC)c1OC [MT-SYK-03] | 106% | 35.4% | > 54% | 81.6% | 90.5% | 103% | 96.4% | 98% | 89.2% | 95.9% | 93.9% | 103% | 46.4% | 78.6% | 115% | 116% | 69% | 82.1% | 96.5% | 91.5% | IC50 (TXK; [1]): 222 nM; Residual enzymatic activity (ABL1): 68.0%; Residual enzymatic activity (PKA): did not inhibit any; remaining activity at 0.5 µM (MRCKb/CDC42BPB; 500 nM, relative to DMSO): 103%; IC50 (PDGFRa; [1]): 35.9 nM; Residual enzymatic activity (EPHA3): 91.8%; remaining activity at 0.5 µM (MSK2/RPS6KA4): 97.9%; remaining activity at 0.5 µM (CK1a1): 101%; remaining activity at 0.5 µM (CDK9/cyclin T1): 118%; remaining activity at 0.5 µM (SRMS): 99.7%; remaining activity at 0.5 µM (LYN): 12.5%; IC50 (LYN; [1]): 8.8 nM; inhibition at 0.5 µM (LYN; read-out: Inhibition at 500 nM): > 90%; remaining activity at 0.5 µM (MST3/STK24): 108%; remaining activity at 0.5 µM (DYRK3): 91.6%; remaining activity at 0.5 µM (p70S6Kb/RPS6KB2): 91.4%; remaining activity at 0.5 µM (IGF1R): 90%; Residual enzymatic activity (MAPKAPK2): did not inhibit any; remaining activity at 0.5 µM (MAPKAPK2): 101%

Source: publication PMC8632988, “Inhibition of SYK and cSrc kinases can protect bone and cartilage in preclinical models of osteoarthritis and rheumatoid arthritis” (Scientific Reports, 2021)
